SMILES strings stand for the structures.

The record followed here is ChEMBL document CHEMBL1681652, “Synthesis and evaluation of 2-phenyl-1,4-butanediamine-based CCR5 antagonists for the treatment of HIV-1” (Bioorg Med Chem Lett, 2011).

The test system of data set [1] is Human immunodeficiency virus 1. As to the kind of experiment: Antiviral activity against HIV1 Ba-L infected in human HOS cells expressing CCR5 after 4 days. Type of data set: functional, organism-based.
Data set [2] has as its target Voltage-gated inwardly rectifying potassium channel KCNH2 (Homo sapiens, UniProt Q12809). The data set can be described thus: Displacement of labeled dofetilide from human ERG.
In data set [3] the test system is Human immunodeficiency virus 1. The data set can be described thus: Antiviral activity against HIV1 Ba-L infected in human PBL cells assessed as reverse transcriptase activity after 7 days. Type of data set: functional, organism-based. The settings on record: Human immunodeficiency virus 1, Ba-L, 168 h.
Data set [4] is described as follows: Oral bioavailability in Sprague-Dawley rat at 1 mg/kg. Type of data set: ADME, organism-based. The settings on record: in vivo.
The subject of a further data set is Rattus norvegicus. As to the kind of experiment: AUC in Sprague-Dawley rat at 1 mg/kg, iv and po. Type of data set: ADME, organism-based, Plasma. The arrangement: dose 1 mg/kg, route oral; unit not given here. The settings on record: in vivo.
The nature of data set [5]: Half life in human hepatocytes. Type of data set: ADME, cell-based, Liver, Hepatocyte.
Data set [6] is described as follows: Half life in rat hepatocytes. Type of data set: ADME, cell-based, Liver, Hepatocyte.
Data set [7] is described as follows: Apparent permeability across MDCK cells. Type of data set: ADME, cell-based, Canis lupus familiaris. The settings on record: dog.
[8] abbreviates: Human immunodeficiency virus 1, Ba-L, HOS, 96 h.

Sequence of Voltage-gated inwardly rectifying potassium channel KCNH2 (Q12809 whole entry): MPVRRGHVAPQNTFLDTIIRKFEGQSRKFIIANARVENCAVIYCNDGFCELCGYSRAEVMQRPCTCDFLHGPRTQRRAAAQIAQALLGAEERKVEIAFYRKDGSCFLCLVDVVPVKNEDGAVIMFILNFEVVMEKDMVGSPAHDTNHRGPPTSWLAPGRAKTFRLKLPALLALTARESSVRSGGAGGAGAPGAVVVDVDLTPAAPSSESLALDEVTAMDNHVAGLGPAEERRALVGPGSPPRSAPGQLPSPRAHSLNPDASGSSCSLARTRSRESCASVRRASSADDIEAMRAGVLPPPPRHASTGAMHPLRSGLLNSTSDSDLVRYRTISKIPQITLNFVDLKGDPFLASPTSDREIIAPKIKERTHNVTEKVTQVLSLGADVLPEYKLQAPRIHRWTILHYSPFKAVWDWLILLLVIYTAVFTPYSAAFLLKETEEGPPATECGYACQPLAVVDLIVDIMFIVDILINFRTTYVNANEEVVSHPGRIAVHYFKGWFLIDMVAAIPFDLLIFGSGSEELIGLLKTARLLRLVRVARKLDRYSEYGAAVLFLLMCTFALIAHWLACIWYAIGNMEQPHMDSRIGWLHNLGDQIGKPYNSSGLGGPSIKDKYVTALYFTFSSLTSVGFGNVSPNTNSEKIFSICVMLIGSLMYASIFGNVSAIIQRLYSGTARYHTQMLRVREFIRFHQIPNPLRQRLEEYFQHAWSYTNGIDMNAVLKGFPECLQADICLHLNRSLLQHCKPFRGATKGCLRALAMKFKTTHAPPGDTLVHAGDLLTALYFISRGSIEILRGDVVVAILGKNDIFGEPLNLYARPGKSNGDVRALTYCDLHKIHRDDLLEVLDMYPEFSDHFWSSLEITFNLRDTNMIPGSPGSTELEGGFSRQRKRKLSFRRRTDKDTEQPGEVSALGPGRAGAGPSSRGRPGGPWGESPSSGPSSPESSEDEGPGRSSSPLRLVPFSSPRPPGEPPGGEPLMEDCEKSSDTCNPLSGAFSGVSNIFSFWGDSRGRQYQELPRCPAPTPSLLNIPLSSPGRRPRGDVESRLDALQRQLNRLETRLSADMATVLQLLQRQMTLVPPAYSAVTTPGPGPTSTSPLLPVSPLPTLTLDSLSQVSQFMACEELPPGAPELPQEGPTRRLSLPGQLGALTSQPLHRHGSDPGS

Broadly, the IC50 is the point on the concentration scale where inhibition reaches its midpoint. Take `Cc1nnc(C(C)C)n1[C@H]1C[C@H]2CC[C@@H](C1)N2CCC(CNC(=O)C1CCC(F)(F)CC1)c1ccccc1` (mixture of isomers) [listing 1 of 2 here]: the concentration for half-maximal inhibition (IC50) in data set [1] (hos) was 866 nM; in data set [2] it was not below 10000 nM. For the compound `Cn1nc(Cc2ccccc2)cc1C1CCN(CCC(CNS(=O)(=O)c2ccccc2)c2ccccc2)CC1` (racemic), in data set [1] (setting [8]), 88 nM corresponded to half-maximal inhibition (IC50).

In the case of `Cc1nnc(C(C)C)n1C1CCN(CCC(CNS(=O)(=O)c2ccccc2)c2ccccc2)CC1` (racemic), half-maximal inhibition in data set [1] (setting [8]) (IC50) required 989 nM. The same measure, in the same setting: as for `Cc1nnc(-c2ccccc2)n1C1CCN(CCC(CNS(=O)(=O)c2ccccc2)c2ccccc2)CC1` (racemic), the figure is 5020 nM. Regarding `CCc1nc(Cc2ccccc2)cn1C1CCN(CCC(CNS(=O)(=O)c2ccccc2)c2ccccc2)CC1` (racemic), the IC50 in data set [1] (setting [8]) was determined as 45 nM; in data set [3], 43 nM. For the compound `Cc1nc2ccccc2n1C1CCN(CCC(CNS(=O)(=O)c2ccccc2)c2ccccc2)CC1` (racemic), half-maximal inhibition in data set [1] (setting [8]) (IC50) was put at 362 nM.

As a reminder, the bioavailability is dose-corrected exposure relative to a reference, in per cent. One may read the half-life as the time needed for the level to fall by half in the phase considered. Take `Cc1cc(OS(=O)(=O)c2ccccc2)cc(C)c1C(=O)N1C[C@H]2CN(CCC(CNS(=O)(=O)c3ccccc3)c3ccccc3)C[C@H]2C1` (mixture of isomers): the half-inhibitory concentration (IC50) in data set [1] (setting [8]) amounted to 8 nM; in data set [3], 1 nM. The compound further gave a bioavailability in data set [4] of 2%. In addition, in the data set with Rattus norvegicus, the AUC is on record as 10. Besides, the half-life in data set [5] and in data set [6] was not above 20 min each time. Consider `Cc1nc2ccccc2n1C1CC2CCC(C1)N2CCC(CN(C)S(=O)(=O)c1ccccc1)c1ccccc1` (racemic), for which the IC50 in data set [1] (setting [8]) amounted to 8 nM; in data set [3], 60 nM. In data set [4], this compound returned a bioavailability of 5%. The compound also displayed an AUC in the data set on Rattus norvegicus of 40. In addition, the half-life in data set [5] and in data set [6] was not above 20 min in each case. With `Cc1nc2ccccc2n1C1CC2CCC(C1)N2CCC(CNS(=O)(=O)c1ccccc1)c1ccccc1` (racemic), the half-maximal inhibitory concentration (IC50) turned out to be 65 nM in data set [1] (setting [8]) and 112 nM in data set [3]. On the same counts, the results for `Cc1nc2ccccc2n1C1CC2CCC(C1)N2CCC(CNS(=O)(=O)c1cccc(C(N)=O)c1)c1ccccc1` (racemic) are 16 nM and 161 nM. In data set [1] (setting [8]), `Cc1nc2ccccc2n1C1CC2CCC(C1)N2CCC(CN(C)C(=O)C1CCC(F)(F)CC1)c1ccccc1` (racemic) gave an IC50 of 520 nM. In data set [1] (setting [8]), `Cc1nc2ccccc2n1C1CC2CCC(C1)N2CCC(CNC(=O)C1CCC(F)(F)CC1)c1ccccc1` (racemic) registered a concentration for half-maximal inhibition (IC50) of 411 nM. As to `Cc1nc2ccccc2n1C1CC2CCC(C1)N2CCC(CNS(C)(=O)=O)c1ccccc1` (racemic), the 50% inhibitory concentration (IC50) came out at 23 nM in data set [1] (setting [8]) and 99 nM in data set [3]. Take `Cc1nc2ccccc2n1C1CC2CCC(C1)N2CCC(CNS(=O)(=O)N1CCOCC1)c1ccccc1` (racemic): the 50% inhibitory concentration (IC50) in data set [1] (setting [8]) was 13 nM. The same measure, in the same setting: as for `CC(=O)NCC(CCN1C2CCC1CC(n1c(C)nc3ccccc31)C2)c1ccccc1` (racemic), the figure is 866 nM; as for `COP(=O)(NCC(CCN1C2CCC1CC(n1c(C)nc3ccccc31)C2)c1ccccc1)OC` (racemic), 77 nM; as for `Cc1nc2ccncc2n1[C@H]1C[C@H]2CC[C@@H](C1)N2CCC(CNS(=O)(=O)c1ccccc1)c1ccccc1` (mixture of isomers), 38 nM.

Take `CC(=O)N1CCc2nc(C)n([C@H]3C[C@H]4CC[C@@H](C3)N4CCC(CNS(=O)(=O)c3ccccc3)c3ccccc3)c2C1` (mixture of isomers): the results for the IC50 in data set [1] (setting [8]) and in data set [3] were 3 nM and 1 nM, respectively. This compound also had a bioavailability in data set [4] of less than 1%. The same compound yielded an AUC in the data set with Rattus norvegicus of 0. Besides, the half-life in data set [5] and in data set [6] was not above 20 min throughout. Consider `Cc1nnc(C(C)C)n1[C@H]1C[C@H]2CC[C@@H](C1)N2CCC(CNC(=O)C1CCC(F)(F)CC1)c1ccccc1` (mixture of isomers) [listing 2 of 2 here], for which it took 9740 nM to reach half-maximal inhibition in data set [1] (hos) (IC50). In turn, `Cc1nnc(C(C)C)n1[C@H]1C[C@H]2CC[C@@H](C1)N2CCC(CNC(=O)C1CC(F)(F)C1)c1ccccc1` (mixture of isomers) had a 50% inhibitory concentration (IC50) in data set [1] (setting [8]) of more than 20000 nM. Consider `Cc1nnc(C(C)C)n1[C@H]1C[C@H]2CC[C@@H](C1)N2CCC(CNC(=O)c1ccccc1)c1ccccc1` (mixture of isomers), for which the IC50 in data set [1] (setting [8]) was more than 20000 nM; in data set [2] it was not below 10000 nM. The term Papp denotes the rate of passage across a membrane or cell layer, normalised by area and donor concentration. For the compound `Cc1nc2ccccc2n1[C@H]1C[C@H]2CC[C@@H](C1)N2CCC(C)(CN(C)S(=O)(=O)c1ccccc1)c1ccccc1` (mixture of isomers), the values for the IC50 in data set [1] (setting [8]) and in data set [3] were 9 nM and 1 nM, respectively. Further, the bioavailability in data set [4] was less than 1%. In the data set with Rattus norvegicus, this compound came in with an AUC of 0. The Papp in data set [7] is 7 ×10⁻⁶ cm/s. Also, the half-life in data set [5] and in data set [6] was not above 20 min each time. In the case of `Cc1nc2ccccc2n1[C@H]1C[C@H]2CC[C@@H](C1)N2CCC(C)(CNS(=O)(=O)c1ccccc1)c1ccccc1` (mixture of isomers), 124 nM corresponded to half-maximal inhibition in data set [1] (setting [8]) (IC50). With `Cc1nnc(C(C)C)n1[C@@H]1C[C@H]2CC[C@@H](C1)N2CCC(C)(CNS(=O)(=O)c1ccccc1)c1ccccc1` (mixture of isomers), in data set [1] (setting [8]), the IC50 came out at 578 nM. Same read-out and setting: as for `Cc1nc2ccccc2n1[C@H]1C[C@H]2CC[C@@H](C1)N2CCC(C)(CN(C)C(=O)C1CCC(F)(F)CC1)c1ccccc1` (mixture of isomers), the figure is 235 nM; as for `Cc1nc2ccccc2n1[C@H]1C[C@H]2CC[C@@H](C1)N2CCC(C)(CNC(=O)C1CCC(F)(F)CC1)c1ccccc1` (mixture of isomers), 249 nM. Same read-out and setting: the result for `Cc1nnc(C(C)C)n1[C@@H]1C[C@H]2CC[C@@H](C1)N2CCC(C)(CNC(=O)C1CCC(F)(F)CC1)c1ccccc1` (mixture of isomers) reads 583 nM; that for `Cc1nc2ccccc2n1[C@@H]1C[C@H]2CC[C@@H](C1)N2CCC(CNS(=O)(=O)c1ccccc1)c1ccccc1` (mixture of isomers), 117 nM.

For the compound `Cc1nnc(C(C)C)n1[C@H]1C[C@H]2CC[C@@H](C1)N2CCC(CNS(=O)(=O)c1ccccc1)c1ccccc1` (racemic; 14a), the IC50 in data set [1] (hos) was 480 nM; in data set [2], not below 10000 nM.

Compound `Cc1nnc(C(C)C)n1[C@H]1C[C@H]2CC[C@@H](C1)N2CCC(CNS(=O)(=O)c1ccccc1)c1ccccc1` (racemic; 14b) came in with an IC50 in data set [1] (hos) of 146 nM.
